Like-named read-outs stand apart in the source and are kept apart here.
Tests used:
CLK2 = target: T1, CLK2 (Homo sapiens, UniProt P49760); test: CLK2 kinase activity assay (Z-lyte, Ser/Thr 6 peptide); type: biochemical; conditions: recombinant CLK2 kinase, ATP 60 μM; read-out: EC50
T1 construct: purchased Thermo Fisher (Life Technologies), Z'-LYTE Kinase Assay Kits
Protocol: All reactions were performed in duplicate.

[1] = system: liver cancer (3 cell lines); test: CellTiter-Glo Viability Assay, liver cancer; type: cell-based; conditions: Homo sapiens, inhibition of cancer cell proliferation
MCF7 = test: CellTiter-Glo Viability Assay, breast cancer; type: cell-based; conditions: Homo sapiens, 96 h; MCF7, breast cancer, four days; read-out: EC50
HCC1599 = test: CellTiter-Glo Viability Assay, breast cancer; type: cell-based; conditions: Homo sapiens, 96 h; HCC1599, breast cancer, four days; read-out: EC50
T47D = test: CellTiter-Glo Viability Assay, breast cancer; type: cell-based; conditions: Homo sapiens, 96 h, breast cancer, four days, read-out: EC50
MDA-MB-231-Luc = test: CellTiter-Glo Viability Assay, breast cancer; type: cell-based; conditions: Homo sapiens, 96 h; MDA-MB-231-Luc, breast cancer, four days; read-out: EC50
DU4475 = test: CellTiter-Glo Viability Assay, breast cancer; type: cell-based; conditions: Homo sapiens, DU-4475, 96 h; DU4475, breast cancer, four days; read-out: EC50
CAMA1 = test: CellTiter-Glo Viability Assay, breast cancer; type: cell-based; conditions: Homo sapiens, CAMA-1, 96 h; CAMA1, breast cancer, four days; read-out: EC50
BT-549 = test: CellTiter-Glo Viability Assay, breast cancer; type: cell-based; conditions: Homo sapiens, 96 h; BT-549, breast cancer, four days; read-out: EC50
ZR-75-1 = test: CellTiter-Glo Viability Assay, breast cancer; type: cell-based; conditions: Homo sapiens, 96 h; ZR-75-1, breast cancer, four days; read-out: EC50
CLK3 = CLK3 (Homo sapiens, UniProt P49761); test: CLK3 kinase activity assay (Z-lyte, Ser/Thr 18 peptide)
[2] = system: haematopoietic & lymphoid tumors (13 cell lines); test: CellTiter-Glo Viability Assay, haematopoietic & lymphoid tumors; type: cell-based; conditions: Homo sapiens, inhibition of cancer cell proliferation
[3] = system: prostate cancer (5 cell lines); test: CellTiter-Glo Viability Assay, prostate cancer; type: cell-based; conditions: Homo sapiens
[4] = system: colorectal cancer (6 cell lines); test: CellTiter-Glo Viability Assay, colorectal cancer; type: cell-based; conditions: Homo sapiens, inhibition of cancer cell proliferation
all 50 cell lines = test: CellTiter-Glo Viability Assay, average across all cell lines; type: cell-based; conditions: Homo sapiens; across all 50 cell lines; read-out: average EC50 for inhibition of cancer cell proliferation
Procedure, shortened: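 4-day proliferation, 37° C/5% CO2; 300-3,000 cells/well; compound in duplicate vs DMSO controls. Panel: breast, colorectal, heme/lymphoid, liver, lung, ovarian, pancreatic, prostate lines. Read-out: CellTiter-Glo ATP luminescence, EC50 from dose-response.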

[5] = system: lung cancer (4 cell lines); test: CellTiter-Glo Viability Assay, lung cancer; type: cell-based; conditions: Homo sapiens, inhibition of cancer cell proliferation
[6] = system: pancreatic cancer (8 cell lines); test: CellTiter-Glo Viability Assay, pancreatic cancer; type: cell-based; conditions: Homo sapiens, inhibition of cancer cell proliferation
[7] = system: ovarian cancer (4 cell lines); test: CellTiter-Glo Viability Assay, ovarian cancer; type: cell-based; conditions: Homo sapiens, inhibition of cancer cell proliferation

Sequence of CLK3 (P49761 whole entry): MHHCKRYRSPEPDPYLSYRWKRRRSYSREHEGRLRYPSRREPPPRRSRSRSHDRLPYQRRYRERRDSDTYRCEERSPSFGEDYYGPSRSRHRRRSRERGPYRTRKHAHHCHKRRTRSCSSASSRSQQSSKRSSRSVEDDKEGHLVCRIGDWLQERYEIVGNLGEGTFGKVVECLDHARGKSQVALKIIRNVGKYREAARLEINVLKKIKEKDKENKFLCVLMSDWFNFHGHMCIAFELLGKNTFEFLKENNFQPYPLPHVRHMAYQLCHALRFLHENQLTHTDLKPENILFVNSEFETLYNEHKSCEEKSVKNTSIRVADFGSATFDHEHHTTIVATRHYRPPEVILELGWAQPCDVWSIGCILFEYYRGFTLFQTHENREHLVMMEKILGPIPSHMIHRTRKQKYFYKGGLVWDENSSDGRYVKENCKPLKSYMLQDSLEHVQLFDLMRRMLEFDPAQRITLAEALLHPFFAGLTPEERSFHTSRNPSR
T1 sequence (P49760 whole entry): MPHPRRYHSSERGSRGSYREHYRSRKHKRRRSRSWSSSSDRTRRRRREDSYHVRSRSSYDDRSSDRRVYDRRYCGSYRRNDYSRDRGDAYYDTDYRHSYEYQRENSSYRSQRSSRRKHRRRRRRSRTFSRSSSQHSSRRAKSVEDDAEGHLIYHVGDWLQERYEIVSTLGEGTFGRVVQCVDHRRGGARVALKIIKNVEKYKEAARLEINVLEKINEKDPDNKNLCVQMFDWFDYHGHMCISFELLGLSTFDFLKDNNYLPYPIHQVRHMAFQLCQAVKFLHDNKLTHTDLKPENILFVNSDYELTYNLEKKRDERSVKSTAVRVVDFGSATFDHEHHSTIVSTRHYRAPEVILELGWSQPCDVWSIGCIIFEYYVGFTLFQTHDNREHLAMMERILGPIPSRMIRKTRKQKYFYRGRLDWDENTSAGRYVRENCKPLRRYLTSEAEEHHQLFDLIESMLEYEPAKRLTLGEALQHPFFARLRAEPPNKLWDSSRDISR

In the case of `CN(C)Cc1cncc(-c2ccc3[nH]nc(-c4cc5c(-c6ccoc6)ccnc5[nH]4)c3c2)c1` [Compound 51], the EC50 (CLK2) is reported as 1.4 nM, the EC50 ([1]; SNU-398, SNU398 cell line, read-out: Liver cancer, EC50 SNU398) is reported as 0.232 µM and the EC50 ([1]; HEPG2 cell line, read-out: Liver cancer, EC50 HEPG2) is reported as > 10 µM. For the same compound, the EC50 ([1]; PLC/PRF/5 cell line, read-out: Liver cancer, EC50 PLC/PRF/5) was > 10 µM, the EC50 (MCF7) was > 10 µM and the EC50 (HCC1599) was 407 nM. The EC50 (T47D) was > 10 µM, the EC50 (MDA-MB-231-Luc) was > 10 µM and the EC50 (DU4475) was 7.19 µM. For the same compound, the EC50 (CAMA1) was > 10 µM, the EC50 (BT-549) was > 10 µM and the EC50 (ZR-75-1) was > 10 µM. For the same compound, the EC50 (CLK3) was 31 nM, the EC50 ([2]; DND41, DND-41 cell line, read-out: Haematopoietic & Lymphoid tumors, EC50 (μM) DND-41) was 0.853 µM and the EC50 ([2]; MV4-11, MV-4-11 cell line, read-out: Haematopoietic & Lymphoid tumors, EC50 (μM) MV-4-11) was 0.406 µM. For the same compound, the EC50 ([2]; Rec1, REC-1 cell line, read-out: Haematopoietic & Lymphoid tumors, EC50 (μM) REC-1) was 0.527 µM, the EC50 ([2]; SU-DHL-4, SUDHL4 cell line, read-out: Haematopoietic & Lymphoid tumors, EC50 (μM) SUDHL4) was 0.501 µM and the EC50 ([2]; HL-60 cell line, read-out: Haematopoietic & Lymphoid tumors, EC50 (μM) HL-60) was 9.46 µM. It also gave an EC50 ([2]; JM1 cell line, read-out: Haematopoietic & Lymphoid tumors, EC50 (μM) JM1) of 0.195 µM, an EC50 ([2]; JURKAT, Clone E6-1 cell line, read-out: Haematopoietic & Lymphoid tumors, EC50 (μM) JURKAT, Clone E6-1) of 2.79 µM and an EC50 ([2]; JeKo-1 cell line, read-out: Haematopoietic & Lymphoid tumors, EC50 (μM) JeKo-1) of 0.713 µM. The EC50 ([2]; KASUMI-1 cell line, read-out: Haematopoietic & Lymphoid tumors, EC50 (μM) KASUMI-1) was 5.07 µM, the EC50 ([2]; Loucy cell line, read-out: Haematopoietic & Lymphoid tumors, EC50 (μM) Loucy) was 1.28 µM and the EC50 ([2]; MOLT-4 cell line, read-out: Haematopoietic & Lymphoid tumors, EC50 (μM) MOLT-4) was 7.26 µM. For the same compound, the EC50 ([2]; TF-1 cell line, read-out: Haematopoietic & Lymphoid tumors, EC50 (μM) TF-1) was 7.92 µM, the EC50 ([2]; TOLEDO cell line, read-out: Haematopoietic & Lymphoid tumors, EC50 (μM) TOLEDO) was 0.302 µM and the EC50 ([3]; DU-145, read-out: Prostate cancer EC50 Du-145) was > 10 µM. The EC50 ([3]; PC-3, PC3 cell line, inhibition of cancer cell proliferation, read-out: Prostate cancer EC50 PC3) was 7.87 µM, the EC50 ([3]; 22Rv1 cell line, inhibition of cancer cell proliferation, read-out: Prostate cancer EC50 22Rv1) was 0.859 µM and the EC50 ([3]; LNCap clone FGC cell line, inhibition of cancer cell proliferation, read-out: Prostate cancer EC50 LNCap clone FGC) was > 10 µM. The EC50 ([3]; VCaP (Sigma) cell line, inhibition of cancer cell proliferation, read-out: Prostate cancer EC50 VCaP (Sigma)) was > 10 µM, the EC50 ([4]; HCT-116, HCT116 cell line, read-out: Colorectal cancer, EC50 (μM) HCT116) was 3.45 µM and the EC50 ([4]; HT-29, HT29 cell line, read-out: Colorectal cancer, EC50 (μM) HT29) was > 10 µM. It also gave an EC50 ([4]; SW-620, SW620 cell line, read-out: Colorectal cancer, EC50 (μM) SW620) of 2.34 µM, an EC50 ([4]; DLD-1 cell line, read-out: Colorectal cancer, EC50 (μM) DLD-1) of 1.64 µM and an EC50 ([4]; SW48 cell line, read-out: Colorectal cancer, EC50 (μM) SW48) of 3.77 µM. The EC50 (all 50 cell lines) was 6.51 µM, the EC50 ([5]; A-427, A427 cell line, read-out: Lung cancer, EC50 (μM) A427) was > 10 µM and the EC50 ([5]; HCC78, HCC-78 cell line, read-out: Lung cancer, EC50 (μM) HCC-78) was > 10 µM. The EC50 ([5]; NCI-H460 cell line, read-out: Lung cancer, EC50 (μM) NCI-H460) was > 10 µM, the EC50 ([5]; NCI-H522 cell line, read-out: Lung cancer, EC50 (μM) NCI-H522) was 5.83 µM and the EC50 ([6]; BXPC-3, BxPC3 cell line, read-out: Pancreatic cancer, EC50 BxPC3) was > 10 µM. For the same compound, the EC50 ([6]; CAPAN-1, Capan1 cell line, read-out: Pancreatic cancer, EC50 Capan1) was > 10 µM, the EC50 ([6]; Capan-2, Capan2 cell line, read-out: Pancreatic cancer, EC50 Capan2) was > 10 µM and the EC50 ([6]; MIA PaCa-2 cell line, read-out: Pancreatic cancer, EC50 MIA PaCa-2) was 3.52 µM. The EC50 ([6]; PANC 05.04 cell line, read-out: Pancreatic cancer, EC50 PANC 05.04) was > 10 µM, the EC50 ([6]; PANC-1 cell line, read-out: Pancreatic cancer, EC50 PANC-1) was > 10 µM and the EC50 ([6]; UPAFII cell line, read-out: Pancreatic cancer, EC50 UPAFII) was 8.92 µM. For the same compound, the EC50 ([7]; PA-1, PA1 cell line, read-out: Ovarian cancer, EC50 (μM) PA1) was 8.98 µM, the EC50 ([7]; TOV112D, TOV-112D cell line, read-out: Ovarian cancer, EC50 (μM) TOV-112D) was > 10 µM and the EC50 ([7]; OV-90 cell line, read-out: Ovarian cancer, EC50 (μM) OV-90) was > 10 µM. For the same compound, the EC50 ([7]; OVCAR-3 cell line, read-out: Ovarian cancer, EC50 (μM) OVCAR-3) was 3.22 µM.
